Reference: patent publication US10676449B2, “Electronically activated strained alkynes” (Wisconsin Alumni Research Foundation, priority 2017, dated 2020)

Columns and labels:
Assay type in all cases: physicochemical
[1] = strain-promoted 1,3-dipolar cycloaddition kinetics with benzyl azide (experimental second order rate constants); details: for k2: 1,3-dipolar cycloaddition with benzyl azide 5, acetonitrile, ambient temperatures; for krel.: reaction with benzyl azide, relative to 4b = 1.0; for change of rate of reaction with benzyl azide, in words: relative to the comparator alkyne; for Experimental Rate: CD3CN
Text: The reactivity of the novel strained alkyne derivatives disclosed herein were first assessed using benzyl azide 5 as a model substrate (Table 1, model reaction at top). […] When steric hindrance was increased by placing the more bulky isopropyl group at C1, the rate of the reaction slowed to a sixth of that of […]. […] The effects of the heteroatoms in the ring were similarly pronounced. […] For Me-substituted substrates 4a and 4d, the rates slowed to roughly half their unprotected values. While a more electron-poor nitrogen heteroatom is expected to result in a stronger electronic effect and an expected increase in reaction rate, the conflicting effects of bond lengthening and steric repulsion between the Boc and R^1 groups overrides any benefit and results in a net slowing of rate. Similarly, when the homopropargylic oxygen atom was replaced with a Boc-protected nitrogen atom, the rate fell dramatically to an eighteenth of that of the sulfamate (4f). The fastest substrate, 1a, compares favorably to other reported strained alkynes. It is faster than OCT, the exocyclic heteroatom-activated MOFO, and the endocyclic heteroatom-activated alkynes reported by Toomoka et al., supra. The reaction rate of 1a is surpassed only slightly by DIFO.
With the difluorinated SNO-OCT 8a in hand, preliminary kinetic studies were carried out (Table 7) and compared to computed and experimental rates of both the parent SNO-OCTs 4 and 6, as well as 8. A rate enhancement of 13-fold was predicted in moving from the parent SNO-OCT 6 (entry 1, right column) to the difluorinated SNO-OCT 8 (entry 3, right column) in reactions with alkyl azides; this was quite similar to the experimental rate enhancement seen in moving from 4 to 8a of 18× (entries 1 and 3 in the left column).

[2] = experimental rate comparison of cycloalkynes with diazoacetamide 8 and azidoacetamide 7; details: ratio of rate constants with diazoacetamide and azidoacetamide
Text: For these exploratory studies, diazoacetamide 8 (Table 3) and azidoacetamide 7 were chosen because of the increased nucleophilicity of 8 as compared to azide 7 and its ability to survive cellular metabolism. When comparing rate differences with diazoacetamide 8 and azidoacetamide 7 for common cycloalkynes, DIBAC reacted˜5-times faster with the diazoacetamide than the analogous azide in 1:1 CD3CN:D2O. […] At the same time, these compounds provide for complete selectivity that is as of yet lacking in cyclooctynes. It was hypothesized by the present inventors that properly positioned heteroatoms in sulfamate-derived cyclooctynes would lead to an increase in diazo-selective reactivity over azides, thus enabling orthogonal bioconjugation techniques.
The effects of the various heteroatoms on this increased chemoselectivity were investigated computationally. […] In contrast, the ΔΔG‡ is expected to increase, likely due to increased steric repulsion from the bulky Boc-group. This difference in rate provides ˜9:1 selectivity in competition experiments involving 1:1:1 mixtures of diazoacetamide […]:alkyne (4d, 4e). Efforts to improve the selectivity for reaction with 1 were undertaken by examining the effects of both propargylic and homopropargylic heteroatoms in 4.

[3] = experimental cycloaddition of SNO-OCTs with diazoacetamide; details: dipole diazoacetamide; CD3CN
Text: A rate enhancement of ˜300-fold was predicted in moving from the parent SNO-OCT 6 (entry 2, right column) to the difluorinated SNO-OCT 8 (entry 4, right column) in reactions with alkyl diazaoacetamides. Experimentally, the rate enhancement in moving from 4 to 8a (entries 2 and 4 in the left column) could not be determined using proton NMR spectroscopy to monitor the progress of the reaction. […] While orthogonality was also observed for reactions of 4 and 8a with azides, the selectivity appeared to be lower than that predicted for the diazoalkanes.

Row | Compound | k2 [1] [M⁻¹ s⁻¹] | krel. [1] | change of rate of reaction with benzyl azide, in words [1] | further results
1 | CC1C#CCCOS(=O)(=O)N1 (stereo not drawn) [4a] | 0.066 | 2.6 |  | k2 ratio, diazoacetamide:azidoacetamide ([2]; CD3CN:D2O = 1:1): 8.5; k2 ratio, diazoacetamide:azidoacetamide ([2]; in CD3CN): 3.0
2 | CCCCCC1C#CCCOS(=O)(=O)N1 (stereo not drawn) [4b] |  | 1.0 |  | 
3 | CC(C)C1C#CCCOS(=O)(=O)N1 (stereo not drawn) [4c] | 0.0040 | 0.16 | a sixth | 
4 | CC1C#CCCOS(=O)(=O)N1C(=O)OC(C)(C)C (stereo not drawn) [4d] | 0.037 | 1.5 | roughly half | k2 ratio, diazoacetamide:azidoacetamide ([2]; in CD3CN): 5.0
5 | CCCCCC1C#CCCOS(=O)(=O)N1C(=O)OC(C)(C)C (stereo not drawn) [4e] | 0.042 | 1.7 | slowed slightly | 
6 | CC(C)C1C#CCCOS(=O)(=O)N1C(=O)OC(C)(C)C (stereo not drawn) [4f] |  |  | an eighteenth | 
7 | CC1C#CC(C)NS(=O)(=O)OC1 (stereo not drawn) [4g] | 0.047 | 1.9 |  | 
8 | CCCCCC1C#CCCN(C(=O)OC(C)(C)C)S(=O)(=O)N1 (stereo not drawn) [4h] | 0.0014 | 0.056 |  | 
9 | CCC1C#CC(F)(F)COS(=O)(=O)N1 (stereo not drawn) [8a] |  |  |  | Experimental Rate ([1]; dipole Bn—N3): 0.46 M⁻¹ s⁻¹; experimental rate enhancement in moving from 4 ([1]; reactions with alkyl azides (Bn—N3)): 18 ×
10 | CCCCCC1C#CCCOS(=O)(=O)N1 (stereo not drawn) [compound 4] |  |  |  | Experimental Rate [3]: 0.27 M⁻¹ s⁻¹
11 | [N-]=[N+]=NCc1ccccc1 [compound 5] |  |  |  | Experimental Rate (value in parentheses) ([1]; dipole Bn—N3, 2:1 D2O:CD3CN): 0.13 M⁻¹ s⁻¹; Experimental Rate ([1]; dipole Bn—N3): 0.087 M⁻¹ s⁻¹
12 | dibenzoazacyclooctyne [DIBAC, reference compound] |  |  |  | k2 ratio, diazoacetamide:azidoacetamide ([2]; CD3CN:D2O = 1:1): 6.5; k2 ratio, diazoacetamide:azidoacetamide ([2]; in CD3CN): 2.0
